Consider 4 molecules from paper PMC5564600 (Oncotarget, 2017).

Holding throughout (test): biochemical
Holding throughout (type): binding

For assay [1], the target named is T1, panel of 442 kinases (Homo sapiens, UniProt Q00537).
T1 construct: purchased Ambit Biosciences (scanMAXX KINOMEscan)
The note with it: kinase PCTK2; for remaining activity at 1 µM: read-out: % of control at 1 µM.

In assay [2] the target is T2, panel of 442 kinases (Homo sapiens, UniProt P04626).
T2 construct: purchased Ambit Biosciences (scanMAXX KINOMEscan)
The note with it: ERBB2; for remaining activity at 1 µM: read-out: % of control at 1 µM.

In assay [3] the target is T3, panel of 442 kinases (Homo sapiens, UniProt O15197).
T3 construct: purchased Ambit Biosciences (scanMAXX KINOMEscan)
T3 sequence (O15197 32-1021): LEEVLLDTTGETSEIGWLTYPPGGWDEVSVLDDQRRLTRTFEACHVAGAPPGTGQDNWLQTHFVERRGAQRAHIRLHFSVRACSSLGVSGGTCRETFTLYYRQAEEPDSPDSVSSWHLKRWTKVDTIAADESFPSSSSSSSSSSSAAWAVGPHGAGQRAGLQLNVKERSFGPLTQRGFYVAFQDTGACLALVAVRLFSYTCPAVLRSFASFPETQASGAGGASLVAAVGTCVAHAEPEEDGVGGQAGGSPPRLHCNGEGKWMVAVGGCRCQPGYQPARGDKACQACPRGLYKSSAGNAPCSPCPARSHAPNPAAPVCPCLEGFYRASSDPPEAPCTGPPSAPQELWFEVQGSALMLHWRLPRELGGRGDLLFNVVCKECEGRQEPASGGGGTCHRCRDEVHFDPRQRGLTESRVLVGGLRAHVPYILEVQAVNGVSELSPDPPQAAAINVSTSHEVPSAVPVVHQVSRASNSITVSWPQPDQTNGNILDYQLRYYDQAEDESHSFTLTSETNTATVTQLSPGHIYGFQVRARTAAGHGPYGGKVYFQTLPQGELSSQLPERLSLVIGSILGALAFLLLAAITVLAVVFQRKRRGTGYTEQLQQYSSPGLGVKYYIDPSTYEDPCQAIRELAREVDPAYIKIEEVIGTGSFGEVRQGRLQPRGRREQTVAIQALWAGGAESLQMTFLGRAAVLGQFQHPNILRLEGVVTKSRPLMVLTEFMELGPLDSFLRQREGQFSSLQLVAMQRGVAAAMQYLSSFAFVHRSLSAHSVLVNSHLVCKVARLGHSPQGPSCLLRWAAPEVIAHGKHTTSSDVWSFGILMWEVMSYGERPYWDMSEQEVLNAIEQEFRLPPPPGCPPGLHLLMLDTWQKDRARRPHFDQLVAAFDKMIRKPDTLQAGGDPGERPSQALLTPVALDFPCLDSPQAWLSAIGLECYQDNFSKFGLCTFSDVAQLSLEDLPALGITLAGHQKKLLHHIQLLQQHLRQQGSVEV
The note with it: EPHB6; for remaining activity at 1 µM: read-out: % of control at 1 µM.

For assay [4], the target named is T4, panel of 442 kinases (Homo sapiens, UniProt O94804).
T4 construct: purchased Ambit Biosciences (scanMAXX KINOMEscan)
The note with it: kinase LOK; for remaining activity at 1 µM: read-out: % of control at 1 µM.

The target in assay [5] is T5, panel of 442 kinases (Homo sapiens, UniProt Q9HBH9).
T5 construct: purchased Ambit Biosciences (scanMAXX KINOMEscan)
The note with it: kinase MKNK2; for remaining activity at 1 µM: read-out: % of control at 1 µM.

The target of assay [6] is T6, panel of 442 kinases (Homo sapiens, UniProt Q9UF33).
T6 construct: purchased Ambit Biosciences (scanMAXX KINOMEscan)
T6 sequence (Q9UF33 23-1036): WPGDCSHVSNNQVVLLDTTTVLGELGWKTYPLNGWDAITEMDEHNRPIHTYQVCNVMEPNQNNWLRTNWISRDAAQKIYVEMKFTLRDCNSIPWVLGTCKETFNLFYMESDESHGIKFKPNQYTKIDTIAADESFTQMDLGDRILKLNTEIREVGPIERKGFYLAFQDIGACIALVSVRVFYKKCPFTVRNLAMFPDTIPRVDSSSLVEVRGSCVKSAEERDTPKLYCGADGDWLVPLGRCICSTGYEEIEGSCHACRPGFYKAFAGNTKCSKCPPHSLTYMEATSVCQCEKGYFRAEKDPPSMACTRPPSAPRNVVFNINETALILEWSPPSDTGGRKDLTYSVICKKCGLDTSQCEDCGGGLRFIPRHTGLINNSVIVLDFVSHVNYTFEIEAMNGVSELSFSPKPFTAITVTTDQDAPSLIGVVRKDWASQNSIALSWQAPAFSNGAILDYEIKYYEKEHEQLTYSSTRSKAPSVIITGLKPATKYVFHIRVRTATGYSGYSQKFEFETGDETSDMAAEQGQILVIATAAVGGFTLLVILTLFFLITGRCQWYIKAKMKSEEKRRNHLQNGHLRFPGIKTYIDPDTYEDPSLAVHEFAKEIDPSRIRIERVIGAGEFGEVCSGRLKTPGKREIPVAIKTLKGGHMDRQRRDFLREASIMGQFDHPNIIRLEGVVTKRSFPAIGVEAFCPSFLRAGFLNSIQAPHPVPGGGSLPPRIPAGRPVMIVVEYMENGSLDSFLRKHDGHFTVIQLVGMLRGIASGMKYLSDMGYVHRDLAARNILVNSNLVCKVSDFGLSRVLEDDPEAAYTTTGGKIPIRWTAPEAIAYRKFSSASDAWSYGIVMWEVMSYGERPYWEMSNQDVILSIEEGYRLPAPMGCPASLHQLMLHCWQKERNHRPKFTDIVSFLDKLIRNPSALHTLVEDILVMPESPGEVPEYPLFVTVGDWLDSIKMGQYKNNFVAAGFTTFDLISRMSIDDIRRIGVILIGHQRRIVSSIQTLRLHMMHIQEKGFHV
The note with it: EPHA6; for remaining activity at 1 µM: read-out: % of control at 1 µM.

[7] abbreviates: 10 µM, read-out: % of control at 10 µM.

T1 sequence (Q00537 whole entry): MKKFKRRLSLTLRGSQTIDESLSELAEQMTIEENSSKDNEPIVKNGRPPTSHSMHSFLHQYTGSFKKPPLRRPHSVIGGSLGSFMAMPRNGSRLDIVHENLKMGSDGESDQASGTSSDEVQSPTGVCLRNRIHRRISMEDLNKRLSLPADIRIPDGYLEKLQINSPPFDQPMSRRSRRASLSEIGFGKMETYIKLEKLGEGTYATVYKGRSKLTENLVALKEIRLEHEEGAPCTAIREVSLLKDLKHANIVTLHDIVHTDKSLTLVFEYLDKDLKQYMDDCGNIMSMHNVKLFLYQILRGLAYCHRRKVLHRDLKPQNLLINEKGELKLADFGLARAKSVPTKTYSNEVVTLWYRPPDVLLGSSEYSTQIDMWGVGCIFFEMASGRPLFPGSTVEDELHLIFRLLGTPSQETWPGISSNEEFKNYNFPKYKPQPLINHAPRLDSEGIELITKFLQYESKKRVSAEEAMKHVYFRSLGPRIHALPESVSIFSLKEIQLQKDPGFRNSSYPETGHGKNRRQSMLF
T2 sequence (P04626 23-1255): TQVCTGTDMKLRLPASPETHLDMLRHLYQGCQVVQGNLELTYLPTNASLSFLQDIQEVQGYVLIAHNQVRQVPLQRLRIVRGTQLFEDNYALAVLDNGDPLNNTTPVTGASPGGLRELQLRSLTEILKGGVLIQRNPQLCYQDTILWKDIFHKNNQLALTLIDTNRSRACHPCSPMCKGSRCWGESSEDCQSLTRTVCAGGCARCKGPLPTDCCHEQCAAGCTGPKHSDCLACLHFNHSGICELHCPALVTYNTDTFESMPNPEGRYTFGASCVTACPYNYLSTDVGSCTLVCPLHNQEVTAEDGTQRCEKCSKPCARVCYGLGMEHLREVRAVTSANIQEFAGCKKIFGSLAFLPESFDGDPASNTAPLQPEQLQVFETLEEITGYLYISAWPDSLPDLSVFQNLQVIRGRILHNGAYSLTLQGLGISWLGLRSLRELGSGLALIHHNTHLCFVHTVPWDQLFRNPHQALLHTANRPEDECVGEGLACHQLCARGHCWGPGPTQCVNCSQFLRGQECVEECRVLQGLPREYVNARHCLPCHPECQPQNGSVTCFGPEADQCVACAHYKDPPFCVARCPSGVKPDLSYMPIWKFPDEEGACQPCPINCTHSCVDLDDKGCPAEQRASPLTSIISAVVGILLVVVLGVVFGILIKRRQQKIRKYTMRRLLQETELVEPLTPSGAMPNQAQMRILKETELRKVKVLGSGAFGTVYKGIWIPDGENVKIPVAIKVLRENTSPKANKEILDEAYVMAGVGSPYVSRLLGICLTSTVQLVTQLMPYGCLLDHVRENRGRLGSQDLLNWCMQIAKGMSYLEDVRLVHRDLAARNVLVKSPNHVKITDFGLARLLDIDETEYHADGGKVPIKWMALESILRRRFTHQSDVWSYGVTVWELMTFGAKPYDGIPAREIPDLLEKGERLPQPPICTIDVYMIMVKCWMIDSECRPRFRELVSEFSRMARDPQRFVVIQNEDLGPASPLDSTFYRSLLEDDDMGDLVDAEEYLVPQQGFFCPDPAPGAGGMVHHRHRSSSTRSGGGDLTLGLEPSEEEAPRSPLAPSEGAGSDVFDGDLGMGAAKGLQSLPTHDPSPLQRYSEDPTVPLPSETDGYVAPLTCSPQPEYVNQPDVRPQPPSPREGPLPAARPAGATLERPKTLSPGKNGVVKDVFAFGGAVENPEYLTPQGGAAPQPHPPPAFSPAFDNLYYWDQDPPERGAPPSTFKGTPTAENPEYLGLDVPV
T4 sequence (O94804 whole entry): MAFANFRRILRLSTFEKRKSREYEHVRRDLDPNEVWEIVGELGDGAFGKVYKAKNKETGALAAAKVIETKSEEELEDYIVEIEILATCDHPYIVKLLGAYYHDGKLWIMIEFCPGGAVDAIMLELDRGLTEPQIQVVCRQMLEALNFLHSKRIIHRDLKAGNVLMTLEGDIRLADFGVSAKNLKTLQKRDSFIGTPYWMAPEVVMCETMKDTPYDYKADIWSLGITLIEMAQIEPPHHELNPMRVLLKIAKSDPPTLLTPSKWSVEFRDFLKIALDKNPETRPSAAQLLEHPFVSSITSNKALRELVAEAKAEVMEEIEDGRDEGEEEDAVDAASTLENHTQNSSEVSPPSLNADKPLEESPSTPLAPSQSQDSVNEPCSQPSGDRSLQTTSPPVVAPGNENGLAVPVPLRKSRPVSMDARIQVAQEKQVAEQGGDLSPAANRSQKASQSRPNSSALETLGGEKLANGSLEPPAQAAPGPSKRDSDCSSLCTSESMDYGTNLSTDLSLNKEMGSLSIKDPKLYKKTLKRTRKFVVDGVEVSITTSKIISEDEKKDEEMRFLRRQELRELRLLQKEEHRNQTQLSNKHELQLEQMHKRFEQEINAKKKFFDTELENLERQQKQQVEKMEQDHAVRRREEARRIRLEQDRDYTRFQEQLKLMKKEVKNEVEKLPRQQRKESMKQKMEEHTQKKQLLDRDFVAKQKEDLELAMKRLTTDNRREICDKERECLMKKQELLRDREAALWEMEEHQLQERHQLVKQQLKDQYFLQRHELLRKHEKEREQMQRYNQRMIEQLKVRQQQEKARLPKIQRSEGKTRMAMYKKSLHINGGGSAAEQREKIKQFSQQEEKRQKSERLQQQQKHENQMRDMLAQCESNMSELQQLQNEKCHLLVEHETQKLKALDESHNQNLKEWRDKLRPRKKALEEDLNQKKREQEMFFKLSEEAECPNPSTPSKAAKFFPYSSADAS
T5 sequence (Q9HBH9 whole entry): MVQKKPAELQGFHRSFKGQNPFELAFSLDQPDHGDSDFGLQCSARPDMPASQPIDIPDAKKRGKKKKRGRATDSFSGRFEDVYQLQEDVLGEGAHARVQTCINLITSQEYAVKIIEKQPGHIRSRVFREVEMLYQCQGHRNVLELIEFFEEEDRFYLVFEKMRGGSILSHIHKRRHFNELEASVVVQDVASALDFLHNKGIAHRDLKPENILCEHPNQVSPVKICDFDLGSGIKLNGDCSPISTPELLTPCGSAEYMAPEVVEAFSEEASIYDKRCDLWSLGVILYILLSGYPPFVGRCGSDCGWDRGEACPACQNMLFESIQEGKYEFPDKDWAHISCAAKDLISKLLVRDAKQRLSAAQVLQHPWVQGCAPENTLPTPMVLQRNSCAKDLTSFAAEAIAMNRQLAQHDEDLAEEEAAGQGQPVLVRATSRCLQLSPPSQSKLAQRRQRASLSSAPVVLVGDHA

Turning to `COc1ncc(-c2ccc3nccc(-c4ccnnc4)c3c2)cc1NS(=O)(=O)c1ccc(F)cc1F` [Omipalisib], the remaining activity at 1 µM on panel of 442 kinases [1] was 100%; at panel of 442 kinases [2], 100%; at panel of 442 kinases [3] it was 57%; at panel of 442 kinases [4], 100%; at panel of 442 kinases [5], 98%; on panel of 442 kinases [6] it was 100%.

For `Cn1c(=O)n(-c2ccc(C(C)(C)C#N)cc2)c2c3cc(-c4cnc5ccccc5c4)ccc3ncc21` [Dactolisib, 2-methyl-2-[4-(3-methyl-2-oxo-8-quinolin-3-yl-2,3-dihydroimidazo[4,5-c]quinolin-1-yl)-phenyl] propionitrile], the remaining activity at 1 µM worked out at 100% at panel of 442 kinases [1]; 100% on panel of 442 kinases [2]; 100% at panel of 442 kinases [3]; 100% at panel of 442 kinases [4]; 100% on panel of 442 kinases [5]; 94% at panel of 442 kinases [6].

On to `Nc1cc(C(F)(F)F)c(-c2cc(N3CCOCC3)nc(N3CCOCC3)n2)cn1` [Buparlisib], for which the remaining activity at 1 µM was found to be 87% on panel of 442 kinases [1]; 85% on panel of 442 kinases [2]; 76% on panel of 442 kinases [3]; 92% on panel of 442 kinases [4]; 90% on panel of 442 kinases [5]; 93% on panel of 442 kinases [6]. For the same molecule, the remaining activity at 10 µM on panel of 442 kinases [1] (setting [7]) worked out at 69%; at panel of 442 kinases [2] (setting [7]), 100%; on panel of 442 kinases [3] (setting [7]), 89%; on panel of 442 kinases [4] (setting [7]), 100%; on panel of 442 kinases [5] (setting [7]), 80%; at panel of 442 kinases [6] (setting [7]), 100%.

For `FC(F)c1nc2ccccc2n1-c1nc(N2CCOCC2)nc(N2CCOCC2)n1` [ZSTK474, 2-(difluoromethyl)-1-[4,6-di(4-morpholinyl)-1,3,5-triazin-2-yl]-1H-benzimidazole], the remaining activity at 1 µM at panel of 442 kinases [1] stood at 100%; on panel of 442 kinases [2], 100%; on panel of 442 kinases [3], 100%; at panel of 442 kinases [4], 100%; at panel of 442 kinases [5], 100%; at panel of 442 kinases [6] it was 88%.
